# From patent US7531553B2, “Heterocyclic compounds and methods of use” (Amgen Inc., priority 2003, dated 2009)
# Test system: Human Umbilical Vein Endothelial cells
# Assay: HUVEC proliferation assay (VEGF-stimulated)
# Format: cell-based
# Conditions: VEGF 50 ng/mL final, 72 h incubation, CyQuant dye, read-out: inhibited VEGF-stimulated HUVEC proliferation at a level (IC50)
# Experimental: Human Umbilical Vein Endothelial cells are purchased from Clonetics, Inc., as cryopreserved cells harvested from a pool of donors. These cells, at passage 1, are thawed and expanded in EBM-2 complete medium, until passage 2 or 3. The cells are trypsinized, washed in DMEM+10% FBS+antibiotics, and spun at 1000 rpm for 10 min. Prior to centrifugation of the cells, a small amount is collected for a cell count. After centrifugation, the medium is discarded, and the cells are resuspended in the appropriate volume of DMEM+10% FBS+antibiotics to achieve a concentration of 3×10^5 cells/mL. Another cell count is performed to confirm the cell concentration. The cells are diluted to 3×10^4 cells/mL in DMEM+10% FBS+antibiotics, and 100 μL of cells are added to a 96-well plate. The cells are incubated at 37° C. for 22 h.
# Prior to the completion of the incubation period, compound dilutions are prepared. Five-point, five-fold serial dilutions are prepared in DMSO, at concentrations 400-fold greater than the final concentrations desired. 2.5 μL of each compound dilution are diluted further in a total of 1 mL DMEM+10% FBS+antibiotics (400× dilution). Medium containing 0.25% DMSO is also prepared for the 0 μM compound sample. After 22-h, the medium is removed from the cells, and 100 μL of each compound dilution is added. The cells are incubated at 37° C. for 2-3 h.
# During the compound pre-incubation period, the growth factors are diluted to the appropriate concentrations. Solutions of DMEM+10% FBS+antibiotics, containing either VEGF or bFGF at the following concentrations: 50, 10, 2, 0.4, 0.08, and 0 ng/mL are prepared. For the compound-treated cells, solutions of VEGF at 550 ng/mL or bFGF at 220 ng/mL for 50 ng/mL or 20 ng/mL final concentrations, respectively, are prepared since 10 μL of each will be added to the cells (110 μL final volume). At the appropriate time after adding the compounds, the growth factors are added. VEGF is added to one set of plates, while bFGF is added to another set of plates. For the growth factor control curves, the media on wells B4-G6 of plates 1 and 2 are replaced with media containing VEGF or bFGF at the varying concentrations (50-0 ng/mL). The cells are incubated at 37° C. for an additional 72 h.
# At the completion of the 72 h incubation period, the medium is removed, and the cells are washed twice with PBS. After the second wash with PBS, the plates are tapped gently to remove excess PBS, and the cells are placed at −70° C. for at least 30 min. […] Raw data are collected and analyzed using a 4-parameter fit equation in XLFit. IC50 values are then determined.
row,Compound,IC50
1,"CNC(=O)c1cc(Oc2ccc3[nH]c(Nc4ccc(C(F)(F)C(F)(F)F)c(OC[C@H]5CCCN5C)c4)nc3c2)ccn1 [Example 6, R-4-{2-[3-(1-Methyl-pyrrolidin-2-ylmethoxy)-4-pentafluoroethyl-phenylamino]-1H-benzimidazol-5-yloxy}-pyridine-2-carboxylic acid methylamide]",< 100 nM
2,CNC(=O)c1cc(Oc2ccc3[nH]c(Nc4ccc(C(F)(F)F)c(OCCN(C)C)c4)nc3c2)ccn1 [Example 13a],< 100 nM
3,CNC(=O)c1cc(Oc2ccc3[nH]c(Nc4ccc(C(F)(F)F)c(OCC5CCCN5C)c4)nc3c2)ccn1 (stereo not shown) [Example 13c],< 100 nM
4,"CNC(=O)c1cc(Oc2ccc3c(c2)nc(Nc2ccc(Cl)c(CN4CCN(C)CC4)c2)n3C)ccn1 [Example 17, 4-{2-[4-Chloro-3-(4-methyl-piperazin-1-ylmethyl)-phenylamino]-1-methyl-1H-benzimidazol-5-yloxy}-pyridine-2-carboxylic acid methylamide]",< 100 nM
5,"CN1CCN(Cc2cc(Nc3nc4cc(Oc5ccnc6ccccc56)ccc4[nH]3)ccc2Cl)CC1 [Example 28, [4-Chloro-3-(4-methyl-piperazin-1-ylmethyl)-phenyl]-[5-(quinolin-4-yloxy)-1H-benzimidazol-2-yl]-amine]",< 100 nM
6,"CN1CCC[C@@H]1COc1cc(Nc2nc3cc(Oc4ccnc5ccccc45)ccc3[nH]2)ccc1C(F)(F)F [Example 29, [3-(1-Methyl-pyrrolidin-2-ylmethoxy)-4-trifluoromethyl-phenyl]-[5-(quinolin-4-yloxy)-1H-benzimidazol-2-yl]-amine]",< 100 nM
7,"CNC(=O)c1cc(Oc2ccc3oc(Nc4ccc(Cl)c(CN5CCN(C)CC5)c4)nc3c2)ccn1 [Example 32, 4-{2-[4-Chloro-3-(4-methyl-piperazin-1-ylmethyl)-phenylamino]-benzoxazol-5-yloxy}-pyridine-2-carboxylic acid methylamide]",< 100 nM
8,CNC(=O)c1cc(Oc2ccc3oc(Nc4ccc(Br)cc4)nc3c2)ccn1 [Example 38],< 100 nM
9,CNC(=O)c1cc(Oc2ccc3oc(Nc4ccc(C(C)C)cc4)nc3c2)ccn1 [Example 39],< 100 nM
10,"COc1cc2nccc(Oc3ccc4oc(Nc5ccc(Cl)c(CN6CCN(C)CC6)c5)nc4c3)c2cc1OC [Example 45, 5-((6,7-bis(Methoxy)-4-quinolinyl)oxy)-N-(4-chloro-3-((4-methyl-1-piperazinyl)methyl)phenyl)-1,3-benzoxazol-2-amine]",< 100 nM
11,"CN1CCN(Cc2cc(Nc3nc4cc(Oc5ccnc6[nH]ccc56)ccc4o3)ccc2Cl)CC1 [Example 46, N-(4-Chloro-3-((4-methyl-1-piperazinyl)methyl)phenyl)-5-(1H-pyrrolo[2,3-b]pyridin-4-yloxy)-1,3-benzoxazol-2-amine]",< 100 nM
12,"CN1CCC[C@H]1COc1cc(Nc2nc3cc(Oc4ccnc5[nH]ccc45)ccc3o2)ccc1Cl [Example 47, N-(4-Chloro-3-(((2S)-1-methyl-2-pyrrolidinyl)methoxy)phenyl)-5-(1H-pyrrolo[2,3-b]pyridin-4-yloxy)-1,3-benzoxazol-2-amine]",< 100 nM
13,"CNC(=O)c1cc(Oc2cc(F)c3oc(Nc4ccc(Cl)c(OC[C@@H]5CCCN5C)c4)nc3c2)ccn1 [Example 49, 4-((2-((4-Chloro-3-(((2S)-1-methyl-2-pyrrolidinyl)methoxy)phenyl)amino)-7-fluoro-1,3-benzoxazol-5-yl)oxy)-N-methyl-2-pyridinecarboxamide]",< 100 nM
14,"COc1cc2nccc(Oc3ccc4[nH]c(Nc5ccc(Cl)c(CN6CCN(C)CC6)c5)nc4c3)c2cc1OC [Example 236, [4-Chloro-3-(4-methylpiperazin-1-ylmethyl)-phenyl]-[5-(6,7-dimethoxyquinolin-4-yloxy)-1H-benzimidazol-2-yl]-amine]",< 100 nM
15,"COc1cc2ncnc(Oc3ccc4[nH]c(Nc5ccc(Cl)cc5)nc4c3)c2cc1OC [Example 237, (4-Chlorophenyl)-[5-(6,7-dimethoxyquinazolin-4-yloxy)-1H-benzimidazol-2-yl]-amine]",< 100 nM
16,"COc1cc2ncnc(Oc3ccc4[nH]c(Nc5ccc(Cl)c(OCC6CCN(C)CC6)c5)nc4c3)c2cc1OC [Example 238, [4-Chloro-3-(1-methylpiperidin-4-ylmethoxy)-phenyl]-[5-(6,7-dimethoxyquinazolin-4-yloxy)-1H-benzimidazol-2-yl]-amine]",< 100 nM
17,"CNc1cc(Oc2ccc3oc(Nc4ccc(Cl)c(OC[C@@H]5CCCN5C)c4)nc3c2)ccn1 [Example 239, [4-Chloro-3-((2S)-1-methylpyrrolidin-2-ylmethoxy)-phenyl]-[5-(2-methylamino-pyridin-4-yloxy)-benzoxazol-2-yl]-amine]",< 100 nM
18,"CN1CCC[C@H]1COc1cc(Nc2nc3cc(Oc4ccnc(C(N)=O)c4)ccc3o2)ccc1Cl [Example 240, 4-{2-[4-Chloro-3-((2S)-1-methylpyrrolidin-2-ylmethoxy)-phenylamino]-benzoxazol-5-yloxy}-pyridine-2-carboxylic acid amide]",< 100 nM
19,"CNC(=O)c1cc(Oc2ccc3oc(Nc4ccc(Cl)c(OCC5CCN(C)CC5)c4)nc3c2)ccn1 [Example 242, 4-{2-[4-Chloro-3-(1-methylpiperidin-4-ylmethoxy)-phenylamino]-benzoxazol-5-yloxy}-pyridine-2-carboxylic acid methylamide]",< 100 nM
20,"CNC(=O)c1cc(Oc2ccc3oc(Nc4ccc(Cl)c(OCC5CCNCC5)c4)nc3c2)ccn1 [Example 243, 4-{2-[4-Chloro-3-(piperidin-4-ylmethoxy)-phenylamino]-benzoxazol-5-yloxy}-pyridine-2-carboxylic acid methylamide]",< 100 nM
21,"CNC(=O)c1cc(Oc2ccc3oc(Nc4ccc(Cl)c(OCC5CCN(C(C)C)CC5)c4)nc3c2)ccn1 [Example 244, 4-{2-[4-Chloro-3-(1-isopropylpiperidin-4-ylmethoxy)-phenylamino]-benzoxazol-5-yloxy}-pyridine-2-carboxylic acid methyl amide]",< 100 nM
22,"CNC(=O)c1cc(Oc2cc(Cl)c3oc(Nc4ccc(Cl)c(CN5CCN(C)CC5)c4)nc3c2)ccn1 [Example 245, 4-{7-Chloro-2-[4-chloro-3-(4-methyl-piperazin-1-ylmethyl)-phenylamino]-benzoxazol-5-yloxy}-pyridine-2-carboxylic acid methyl amide]",< 100 nM
23,"CNC(=O)c1cc(Oc2ccc3oc(Nc4ccc(Cl)c(CN5CCN(CCN(C)C)CC5)c4)nc3c2)ccn1 [Example 246, 4-[2-{4-Chloro-3-[4-(2-dimethylamino-ethyl)-piperazin-1-ylmethyl]-phenylamino}-benzoxazol-5-yloxy)-pyridine-2-carboxylic acid methylamide]",< 100 nM
24,"CC(C)N1CCC[C@H]1COc1cc(Nc2nc3cc(Oc4ccnc5[nH]ccc45)ccc3o2)ccc1Cl [Example 247, S-[4-Chloro-3-(1-isopropylpyrrolidin-2-ylmethoxy)-phenyl]-[5-(1H-pyrrolo[2,3-b]pyridin-4-yloxy)-benzoxazol-2-yl]-amine]",< 100 nM
25,"CCN(CC)CCOc1cc(Nc2nc3cc(Oc4ccnc(C(=O)NC)c4)ccc3o2)ccc1Cl [Example 248, 4-{2-[4-Chloro-3-(2-diethylamino-ethoxy)-phenylamino]-benzoxazol-5-yloxy}-pyridine-2-carboxylic acid methylamine]",< 100 nM
26,"CNC(=O)c1cc(Oc2ccc3oc(Nc4ccc(Cl)c(OCCN(C)C)c4)nc3c2)ccn1 [Example 249, 4-{2-[4-Chloro-3-(2-dimethylamino-ethoxy)-phenylamino]-benzoxazol-5-yloxy}-pyridine-2-carboxylic acid methylamide]",< 100 nM
27,"CNC(=O)c1cc(Oc2ccc3oc(Nc4ccc(Cl)c(OC[C@@H]5CCCN5C(C)C)c4)nc3c2)ccn1 [Example 252, 4-{2-[4-Chloro-3-((2S)-1-isopropyl-pyrrolidin-2-ylmethoxy)-phenylamino]-benzooxazol-5-yloxy}-pyridine-2-carboxilic acid methylamide]",< 100 nM
28,"CN1CCN(Cc2cc(Nc3nc4cc(Oc5ccnc6ccccc56)cc(Cl)c4o3)ccc2Cl)CC1 [Example 257, [4-Chloro-3-(4-methyl-piperazin-1-ylmethyl)-phenyl]-[7-chloro-5-(quinolin-4-yloxy)-benzoxazol-2-yl]-amine]",< 100 nM
